From PubChem BioAssay (NCI)
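Grown in 96-well plates, cells were treated for 48 hours with each compound at five concentrations. Insufficient inhibition: endpoint recorded as highest concentration tested. TGI: concentration producing complete growth inhibition.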

Tests used:
Assay in all cases: growth of human tumour cells (NCI), 48 h
MALME-3M melanoma = system: MALME-3M melanoma
MOLT-4 leukemia = system: MOLT-4 leukemia
SF-539 CNS = system: SF-539 CNS
COLO 205 colon = system: COLO 205 colon
BT-549 breast = system: BT-549 breast
MCF7 breast = system: MCF7 breast
HOP-92 NSCLC = system: HOP-92 NSCLC
U251 CNS = system: U251 CNS
UACC-62 melanoma = system: UACC-62 melanoma
SK-MEL-5 melanoma = system: SK-MEL-5 melanoma
OVCAR-3 ovarian = system: OVCAR-3 ovarian

SMILES	TGI (MALME-3M melanoma) [µM]	TGI (MOLT-4 leukemia) [µM]	TGI (SF-539 CNS) [µM]	TGI (COLO 205 colon) [µM]	TGI (BT-549 breast) [µM]	TGI (MCF7 breast) [µM]	TGI (HOP-92 NSCLC) [µM]	TGI (U251 CNS) [µM]	TGI (UACC-62 melanoma) [µM]	TGI (SK-MEL-5 melanoma) [µM]	TGI (OVCAR-3 ovarian) [µM]
COc1ccc2c(c1)-c1c(c3ccccc3n1CCN1CCOCC1)CC2	46.2	37.9	52.4	32.5	63.5	> 100	> 100	81.8	49.4	31.3	56.6
C/C=C/COc1cc(NC(=S)c2ccoc2C)ccc1OC	> 100	> 100	> 100	> 100	> 100	> 100	> 100	> 100	> 100	> 100	> 100
OC(C1CCCC1=N/N=C1/CCCC1C(O)(C(F)(F)Cl)C(F)(F)Cl)(C(F)(F)Cl)C(F)(F)Cl (stereo not drawn)	> 10	> 10	> 10	> 10	> 10	> 10	> 10	> 10	> 10	> 10	> 10
CC(=O)O[C@@H]1CC2[C@@H](CCC3Cc4nc5c(nc4C[C@@]32C)CC2CC[C@@H]3C(CC[C@@]4(C)C3CC[C@@H]4C(C)CCCC(C)C)[C@@]2(C)C5)C2C[C@@H]3OC4(CCC(C)CO4)C(C)[C@@H]3[C@]21C (stereo partly drawn)	> 100	> 100	> 100	> 100	> 100	> 100	70	> 100	50.1	> 100	> 100
CCOC(=O)/C(=C\NC#N)c1nc2ccccc2[nH]1	> 100	> 100	> 100	> 100	> 100	> 100	> 100		> 100	> 100	> 100
C/C(=N\Nc1ncnc2ccccc12)c1ccccn1	1.58	> 9.41	3.29	17.9	35.5	25.1	7.75	34.4	3.22	13.2	12.8
Cc1cc(NS(=O)(=O)c2ccc(NC(=O)c3cccc4c(NNc5ccc(S(N)(=O)=O)cc5)c5ccccc5nc34)cc2)no1	> 100	87.9	> 100	> 100	> 100	> 100	82	63.6	> 100	> 100	71.1
CN(C)C(=O)CO/N=C1/C(c2c(O)[nH]c3ccccc23)=Nc2ccccc21	> 100	> 100	> 100	> 100	> 100	> 100	> 100	> 100	> 100	> 100	> 100
CC1(C)C(C(=O)OC(C#N)c2cccc(OCC(=O)OCc3ccccc3)c2)C1(C)C (stereo not drawn)	> 100	62.7	> 100	> 100	> 100	> 100	> 100	> 100	> 100	> 100	> 100
CNc1nc(=O)c(C#N)c(-c2ccc(C)cc2)s1	> 100	> 100	> 100	> 100	> 100	> 100	> 100	> 100	> 100	> 100	> 100
COc1cc(C(c2cc(OC)c(OC)c(OC)c2)N2C(=O)CCC2C(=O)O)cc(OC)c1OC (stereo not drawn)	> 100	> 100	> 100	> 100	> 100	> 100	> 100	> 100	> 100	> 100	> 100
Cc1cc2nc(NS(=O)(=O)c3cc(C)c(Cl)cc3S)[nH]c2cc1C	> 100	> 100	> 100	> 100	> 100	> 100	> 100	> 100	> 100	> 100	> 100
Cc1ccc(N2C(=O)C(O)=C(C(=O)C(C)(C)C)C2c2ccc([N+](=O)[O-])cc2)cc1 (stereo not drawn)	46	31.5	63	32.3	39	37.6	59.5	> 100	37.2	30	93.5
CN1CCN(CCCCNc2cc3c4ccccc4c(NCCCCN4CCN(C)CC4)cc3c3ccccc23)CC1	5.09	1.88	3.28	14.3	14.9	2.71	28.2	4.21	6.05	2.85	8.5
C[N+](C)(N)Cc1csc(-c2ccc(Cl)cc2)n1	> 100		> 100	> 100	> 100	> 100	> 100	> 100	> 100	> 100	> 100
